Laboratory results reported in the supplement of paper PMC10307832.

Legend:
Assay in all cases: relative viability (nuclei count vs DMSO), 5 days (fraction); higher = more cells survive
Selumetinib + Pictilisib = compound: Cn1cnc2c(F)c(Nc3ccc(Br)cc3Cl)c(C(=O)NOCCO)cc21 [Selumetinib] + CS(=O)(=O)N1CCN(Cc2cc3nc(-c4cccc5[nH]ncc45)nc(N4CCOCC4)c3s2)CC1 [Pictilisib] (partner 1 µM)
Summary of the method: (§1)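 Relative viability is defined as nuclei in treated wells over nuclei in vehicle wells. Duplicate plates were run and medians reported. Lung cancer cell lines in 1536-well plates were dosed by pin tool one day after seeding, with one drug or with a fixed anchor-drug dose plus five library-drug doses (not always all listed) in √10 steps, and nuclei were counted after 5 days.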

Selumetinib + Olaparib = compound: Cn1cnc2c(F)c(Nc3ccc(Br)cc3Cl)c(C(=O)NOCCO)cc21 [Selumetinib] + O=C(c1cc(Cc2n[nH]c(=O)c3ccccc23)ccc1F)N1CCN(C(=O)C2CC2)CC1 [Olaparib] (partner 8 µM)
Summary of the method: as §1

Venetoclax + Trametinib = compound: CC1(C)CCC(CN2CCN(c3ccc(C(=O)NS(=O)(=O)c4ccc(NCC5CCOCC5)c([N+](=O)[O-])c4)c(Oc4cnc5[nH]ccc5c4)c3)CC2)=C(c2ccc(Cl)cc2)C1 [Venetoclax] + CC(=O)Nc1cccc(-n2c(=O)n(C3CC3)c(=O)c3c(Nc4ccc(I)cc4F)n(C)c(=O)c(C)c32)c1 [Trametinib] (partner 0.02 µM)
Summary of the method: as §1

Venetoclax + Luminespib = compound: CC1(C)CCC(CN2CCN(c3ccc(C(=O)NS(=O)(=O)c4ccc(NCC5CCOCC5)c([N+](=O)[O-])c4)c(Oc4cnc5[nH]ccc5c4)c3)CC2)=C(c2ccc(Cl)cc2)C1 [Venetoclax] + CCNC(=O)c1noc(-c2cc(C(C)C)c(O)cc2O)c1-c1ccc(CN2CCOCC2)cc1 [Luminespib] (partner 0.01 µM)
Summary of the method: as §1

Cell Line | relative viability (Selumetinib + Pictilisib; first compound 0.02 µM) | relative viability (Selumetinib + Pictilisib; first compound 0.06325 µM) | relative viability (Selumetinib + Pictilisib; first compound 0.2 µM) | relative viability (Selumetinib + Pictilisib; first compound 0.6325 µM) | relative viability (Selumetinib + Olaparib; first compound 0.02 µM) | relative viability (Selumetinib + Olaparib; first compound 0.06325 µM) | relative viability (Selumetinib + Olaparib; first compound 0.2 µM) | relative viability (Selumetinib + Olaparib; first compound 0.6325 µM) | relative viability (Venetoclax + Trametinib; first compound 0.01 µM) | relative viability (Venetoclax + Trametinib; first compound 0.03162 µM) | relative viability (Venetoclax + Trametinib; first compound 0.1 µM) | relative viability (Venetoclax + Trametinib; first compound 0.3162 µM) | relative viability (Venetoclax + Trametinib; first compound 1 µM) | relative viability (Venetoclax + Luminespib; first compound 0.01 µM) | relative viability (Venetoclax + Luminespib; first compound 0.03162 µM) | relative viability (Venetoclax + Luminespib; first compound 0.1 µM) | relative viability (Venetoclax + Luminespib; first compound 0.3162 µM) | relative viability (Venetoclax + Luminespib; first compound 1 µM)
201T | 0.641 | 0.693 | 0.625 | 0.677 | 0.781 | 0.791 | 0.79 | 0.79 | 0.675 | 0.699 | 0.713 | 0.682 | 0.696 | 1.01 | 1.08 | 1.04 | 0.996 | 1.05
A549 | 0.441 | 0.377 | 0.256 | 0.238 | 0.284 | 0.295 | 0.325 | 0.265 | – | – | – | – | – | – | – | – | – | –
A-427 | 0.752 | 0.583 | 0.493 | 0.421 | 0.724 | 0.771 | 0.802 | 0.845 | 0.624 | 0.741 | 0.735 | 0.71 | 0.713 | 0.903 | 0.847 | 0.889 | 1.07 | 0.891
ABC-1 | 0.64 | 0.605 | 0.393 | 0.607 | 0.885 | 0.726 | 0.737 | 0.768 | – | – | – | – | – | 0.553 | 0.53 | 0.689 | 0.431 | 0.912
BEN | 0.632 | 0.545 | 0.461 | 0.534 | 1.13 | 1.08 | 1.14 | 0.988 | 1.1 | 1.02 | 0.864 | 1.04 | 1 | 0.343 | 0.48 | 0.401 | 0.192 | 0.513
CAL-12T | 0.415 | 0.394 | 0.408 | 0.395 | 0.678 | 0.651 | 0.595 | 0.564 | 0.24 | 0.385 | 0.357 | 0.379 | 0.278 | 0.353 | 0.254 | 0.375 | 0.24 | 0.412
COR-L23 | 0.84 | 0.699 | 0.784 | 0.713 | 0.404 | 0.385 | 0.414 | 0.446 | 0.528 | 0.588 | 0.502 | 0.575 | 0.547 | 0.469 | 0.669 | 0.728 | 0.71 | 0.651
COR-L 105 | 0.342 | 0.312 | 0.338 | 0.347 | 0.73 | 0.727 | 0.687 | 0.582 | 0.333 | 0.499 | 0.386 | 0.496 | 0.413 | 1.03 | 0.61 | 0.522 | 0.712 | 0.625
Calu-6 | 0.931 | 0.644 | 0.467 | 0.335 | 0.62 | 0.489 | 0.421 | 0.362 | – | – | – | – | – | – | – | – | – | –
ChaGo-K-1 | 0.619 | 0.838 | 0.55 | 0.824 | 0.43 | 0.414 | 0.398 | 0.39 | 0.769 | 0.951 | 0.882 | 0.939 | 0.815 | 0.459 | 0.709 | 0.637 | 0.628 | 0.59
EBC-1 | 0.259 | 0.172 | 0.182 | 0.173 | 0.717 | 0.66 | 0.599 | 0.443 | – | – | – | – | – | – | – | – | – | –
EKVX | 0.395 | 0.391 | 0.317 | 0.243 | 0.777 | 0.741 | 0.643 | 0.629 | 0.328 | 0.382 | 0.302 | 0.335 | 0.38 | 0.87 | 0.89 | 0.923 | 0.833 | 0.884
EMC-BAC-2 | 0.556 | 0.53 | 0.523 | 0.492 | 0.636 | 0.657 | 0.674 | 0.717 | 0.915 | 0.965 | 0.887 | 0.857 | 0.906 | 1.09 | 1.16 | 1.23 | 1.21 | 1.1
EPLC-272H | 0.299 | 0.253 | 0.245 | 0.208 | 0.531 | 0.512 | 0.519 | 0.575 | 0.287 | 0.284 | 0.238 | 0.259 | 0.263 | 0.64 | 0.368 | 0.212 | 0.171 | 0.367
H3255 | 0.434 | 0.462 | 0.38 | 0.36 | 0.554 | 0.586 | 0.603 | 0.536 | 0.586 | 0.648 | 0.603 | 0.517 | 0.582 | 0.915 | 0.993 | 0.846 | 0.947 | 0.822
HARA | 0.285 | 0.391 | 0.31 | 0.15 | 0.768 | 0.727 | 0.651 | 0.466 | 1.26 | 0.818 | – | 0.647 | 0.676 | 0.814 | 0.657 | 0.751 | 0.913 | 0.823
HCC-15 | 0.509 | 0.31 | 0.25 | 0.207 | 0.694 | 0.622 | 0.575 | 0.368 | 0.384 | 0.457 | 0.352 | 0.403 | 0.375 | 0.479 | 0.318 | 0.308 | 0.316 | 0.181
HCC-44 | 0.562 | 0.525 | 0.379 | 0.337 | 0.988 | 0.997 | 0.983 | 1.01 | 1.03 | 1.11 | 1.04 | 1.04 | 0.999 | 1.05 | 0.946 | 1.13 | 1.07 | 1
HCC-78 | 0.0694 | 0.181 | 0.134 | 0.216 | 0.904 | 0.738 | 0.723 | 0.789 | 0.599 | 0.826 | 0.597 | 0.722 | 0.911 | – | – | – | – | –
HCC-366 | 0.136 | 0.0735 | 0.124 | 0.115 | 0.415 | 0.296 | 0.198 | 0.19 | 0.358 | 0.411 | 0.353 | 0.383 | 0.407 | – | – | – | – | –
